According to patent US20030114666A1, “Antibacterial agents” (priority 2001, published 2003):
Where two headings read alike, the source gives them in different places.

Columns and labels:
E. coli B90 = test: Test A antibacterial assay, standard microtitration (MIC); format: cell-based; conditions: Gram negative, E. coli B90
Protocol: (§1) Test A-Antibacterial Assay
(§2) The compounds of the present invention were tested against an assortment of Gram-negative and Gram-positive organisms using standard microtitration techniques (Cohen, et al., Antimicrob. Agents Chemother., 1985;28:766; Heifetz, et al., Antimicrob. Agents Chemother:, 1974;6:124). […]

E. coli MC 4100 = test: as above; format: cell-based; conditions: Gram negative, E. coli MC 4100
Protocol: as §1, §2

E. coli Tol C = test: as above; format: cell-based; conditions: for Minimum Inhibitory Concentrations E. coli Tol C: Gram negative
Protocol: as §1, §2

E. faecalis RB1 = test: as above; format: cell-based; conditions: Gram positive, E. faecalis RB1
Protocol: as §1, §2

S. aureus 29213 = test: as above; format: cell-based; conditions: Gram positive, S. aureus 29213
Protocol: as §1, §2

S. pyogenes C203 = test: as above; format: cell-based; conditions: Gram positive, S. pyogenes C203
Protocol: as §1, §2

E. coli gyrase = E. coli gyrase (Escherichia coli, UniProt P0AES4+P0AES6); test: biochemical
E. coli gyrase, sequence (P0AES4 whole entry, the tested form may be a part, one chain of several): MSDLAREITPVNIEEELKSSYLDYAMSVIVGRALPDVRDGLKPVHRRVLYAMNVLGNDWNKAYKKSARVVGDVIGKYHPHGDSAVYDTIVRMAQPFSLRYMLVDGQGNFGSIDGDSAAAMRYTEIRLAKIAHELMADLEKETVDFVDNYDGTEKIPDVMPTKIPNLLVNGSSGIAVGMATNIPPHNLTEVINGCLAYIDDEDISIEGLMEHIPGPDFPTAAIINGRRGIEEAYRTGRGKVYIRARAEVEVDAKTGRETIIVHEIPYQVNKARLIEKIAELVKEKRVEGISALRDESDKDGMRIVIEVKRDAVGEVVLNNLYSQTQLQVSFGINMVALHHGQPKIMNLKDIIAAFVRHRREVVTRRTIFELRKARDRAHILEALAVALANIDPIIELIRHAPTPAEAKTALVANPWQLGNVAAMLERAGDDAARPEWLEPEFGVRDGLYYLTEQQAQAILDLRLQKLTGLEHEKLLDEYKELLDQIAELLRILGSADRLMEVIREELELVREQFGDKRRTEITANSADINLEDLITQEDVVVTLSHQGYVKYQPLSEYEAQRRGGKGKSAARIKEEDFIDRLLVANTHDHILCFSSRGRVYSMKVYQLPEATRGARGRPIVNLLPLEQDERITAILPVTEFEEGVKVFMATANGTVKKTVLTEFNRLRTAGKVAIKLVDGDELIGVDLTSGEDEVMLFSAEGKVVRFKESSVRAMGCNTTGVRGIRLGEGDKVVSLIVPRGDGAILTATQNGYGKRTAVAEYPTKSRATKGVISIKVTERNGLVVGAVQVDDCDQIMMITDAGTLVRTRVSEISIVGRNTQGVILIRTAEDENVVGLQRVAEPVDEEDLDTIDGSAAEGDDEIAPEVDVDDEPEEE

[1] = Test E pharmacokinetic behavior in rats; format: in vivo; conditions: male, Wistar, plasma; Rat; 1 mg/kg IV infusion in D5W over 5 minutes
Protocol: (§3) Test E-Pharmacokinetic Behavior or Quinazolinediones vs. 3-Aminoquinazolinediones
(§4) The compounds of the present invention were tested for pharmacokinetic behavior against the structurally related 3-aminoquinazolinediones in rats, dogs and monkeys. The representative result of the evaluation for compound 4b is shown in Table 6 compared to a structurally similar 3-aminoquinazolinedione.
In this study, compounds were administered to male Wistar rats and were dosed at 1 mg/kgIV infusion in D5W over 5 minutes. Blood samples were drawn at 0, 0.083, 0.167, 0.25, 0.5, 1, 2, 4, 6, 8, 12, and 24 hours post dose.
(§5) Plasma from all samples were harvested following centrifugaltion and stored frozen until plasma concentrations were determined using liquid chromatography/mass spectroscopy methods. The concentration/time profile for each compound in each animal species was analyzed using non-compartmental pharmacokinetic analysis approach. In the table, clearance is defined as the volume of fluid cleared of drug from the body per unit of time. Clearance is a quantitative assessment of drug elimination. Drug elimination is the irreversible removal of drug from the body by all routes of elimination.

[2] = Test E pharmacokinetic behavior in dogs; format: in vivo; conditions: male, beagle, plasma; Dog; 5 mg/kg IV infusion over 15 minutes
Protocol: as §3, §4
Male Beagle Dogs were dosed with compound dissolved in D5W at 5 mg/kg IV Infusion over 15 minutes. Blood samples will be collected at 0, 0.167, 0.25, 0.33, 0.5, 1, 2, 4, 6, 8, 12 and 24 hours post dose.
as §5

[3] = Test E pharmacokinetic behavior in monkeys; format: in vivo, Male Cynomologous Monkeys; conditions: male, plasma; Monkey; 5 mg/kg IV infusion over 15 minutes
Protocol: as §3, §4
Male Cynomologous Monkeys were dosed with compound dissolved in D5W at 5 mg/kg IV Infusion over 15 minutes. Blood samples were collected at 0, 0.167, 0.25, 0.33, 0.5, 1, 2, 4, 6, 8, 12 and 24 hours post dose.
as §5

[4] = supercoiling of relaxed pBR322, 30 minutes at 37° C.

Row | SMILES | Minimum Inhibitory Concentrations E. coli B90 (E. coli B90) [µg/mL] | Minimum Inhibitory Concentrations E. coli MC 4100 (E. coli MC 4100) [µg/mL] | Minimum Inhibitory Concentrations E. coli Tol C (E. coli Tol C) [µg/mL] | Minimum Inhibitory Concentrations E. faecalis RB1 (E. faecalis RB1) [µg/mL] | Minimum Inhibitory Concentrations S. aureus 29213 (S. aureus 29213) [µg/mL] | Minimum Inhibitory Concentrations S. pyogenes C203 (S. pyogenes C203) [µg/mL] | IC50 (E. coli gyrase; [4]) [nM] | clearance [1] [mL/min/kg] | half-life [1] [h] | clearance [2] [mL/min/kg] | half-life [2] [h] | clearance [3] [mL/min/kg] | half-life [3] [h] | also measured
1 | CC1COc2c(N3CC[C@@H]([C@H](C)N)C3)c(F)c(N)c3c(=O)[nH]c(=O)n1c23.Cl (stereo partly drawn) [Example 16d, 7-Amino-9-[9-(R)-3-((S)-1-aminoethyl)pyrrolidin-1-yl)-8-fluoro-3-methyl-2,3-dihydro-1-oxa-3a,5-diazaphenalene-4,6-dione Hydrochloride] | 16.0 | >64.0 | 4.0 | 1.0 | 1.0 | 0.5 | – | – | – | – | – | – | – | IC50 (E. coli gyrase): 25000 nM
2 | Cc1c(N2CCC(C(N)CF)C2)c(F)cc2c(=O)[nH]c(=O)n(C3CC3)c12.Cl (stereo not drawn) [Example 19f, 7-[3-(1-Amino-2-fluoroethyl)pyrrolidin-1-yl]-1-cyclopropyl-6-fluoro-8-methyl-1H-quinazolinedione Hydrochloride] | 0.25 | 4.0 | 0.13 | 0.06 | 0.13 | 0.06 | 1800 | – | – | – | – | – | – | –
3 | Cc1c(-c2csc(CN)c2)c(F)cc2c(=O)[nH]c(=O)n(C3CC3)c12.Cl [Example 22j, 7-(5-Aminomethylthiophen-3-yl)-1-cyclopropyl-6-fluoro-8-methyl-1H-quinazoline-2,4-dione Hydrochloride] | – | – | – | – | – | – | 1400 | – | – | – | – | – | – | MIC (E. coli B90; Escherichia coli, read-out: Minimum Inhibitory Concentrations E. coli B90): 1 µg/mL; MIC (E. coli MC 4100; Escherichia coli, MC4100, read-out: Minimum Inhibitory Concentrations E. coli MC 4100): 8 µg/mL; MIC (E. coli Tol C; Escherichia coli, read-out: Minimum Inhibitory Concentrations E. coli Tol C): 1 µg/mL; MIC (E. faecalis RB1; Enterococcus faecalis, read-out: Minimum Inhibitory Concentrations E. faecalis RB1): 2 µg/mL; MIC (S. aureus 29213; Staphylococcus aureus, read-out: Minimum Inhibitory Concentrations S. aureus 29213): 1 µg/mL; MIC (S. pyogenes C203; Streptococcus pyogenes, read-out: Minimum Inhibitory Concentrations S. pyogenes C203): 0.25 µg/mL
4 | Cc1c(N2CC[C@@H]([C@H](C)N)C2)c(F)cc2c(=O)[nH]c(=O)n(C3CC3)c12 [drawing 387] | – | – | – | – | – | – | – | 47 | 1.9 | 8.7 | 6.3 | 17 | 4.1 | –
5 | Cc1c(N2CC[C@@H]([C@H](C)N)C2)c(F)cc2c(=O)n(N)c(=O)n(C3CC3)c12 [reference compound] | – | – | – | – | – | – | – | 62 | 2 | 21 | 2.4 | 24 | 2.2 | –
